The values below come from PubChem BioAssay (NCI).

Test systems include OVCAR-3 ovarian; BT-549 breast; SF-295 CNS; SK-OV-3 ovarian; RPMI-8226 leukemia; SR leukemia; CAKI-1 renal; HOP-92 NSCLC; EKVX NSCLC; NCI-H522 lung.
What all share (experiment): NCI-60 cell line screen, 48 h

Values joined by “and” are separate entries in the source; they are usually repeats but may differ in a detail not shown here. Identical values can stand only once.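 Growth conditions: 96-well plates. Treatment: test compound, 48 hours, 5 concentrations. Analysis: linear interpolation between bracketing concentrations; unreached endpoints set to highest concentration. GI50 marks 50% less growth. TGI marks complete inhibition of growth.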

Take `N#C[Se]CCN1C(=O)C2C(C1=O)[C@H]1C=C[C@@H]2S1` (some centres not stated): the GI50 with OVCAR-3 ovarian is 1.94 µM; with BT-549 breast it was 1.74 µM; in the assay on SF-295 CNS, 1.83 µM; with SK-OV-3 ovarian it was 2.67 µM; with RPMI-8226 leukemia it was 2.04 µM; in the assay with SR leukemia, 1.98 µM. Also, the GI50 was 1.9 µM in the assay with CAKI-1 renal, 1.88 µM with HOP-92 NSCLC and 1.83 µM in the assay on EKVX NSCLC. Besides, the TGI was determined as 3.85 µM in the assay with OVCAR-3 ovarian; 3.38 µM with BT-549 breast; 3.35 µM in the assay on SF-295 CNS; 5.59 µM in the assay on SK-OV-3 ovarian; 4.84 µM with RPMI-8226 leukemia; 7.7 µM in the assay with SR leukemia. Besides, the TGI came to 3.39 µM in the assay with CAKI-1 renal, 3.94 µM in the assay with HOP-92 NSCLC and 4.28 µM with EKVX NSCLC.

On to `Cc1ccc2c(c1)c(Sc1ccc(C(=O)NO)cc1)c1n2CN(C)CC1`, for which the GI50 in the assay with OVCAR-3 ovarian was 1.93 µM; in the assay on NCI-H522 lung, 1.16 µM; with BT-549 breast, 1.8 µM; in the assay on SF-295 CNS, 1.83 µM; in the assay on SK-OV-3 ovarian, 1.77 µM; with RPMI-8226 leukemia, 1.1 µM. Further, the GI50 was 2.69 µM in the assay with SR leukemia, 3.87 µM in the assay on CAKI-1 renal and 2.1 µM in the assay with HOP-92 NSCLC. For the same compound, the TGI was 5.63 µM in the assay with OVCAR-3 ovarian; 2.61 µM with NCI-H522 lung; 4.57 µM in the assay with BT-549 breast; 3.69 µM with SF-295 CNS; 3.8 µM in the assay with SK-OV-3 ovarian; 9.86 µM with RPMI-8226 leukemia. Also, the TGI with SR leukemia is 8.93 µM; with CAKI-1 renal, 13.9 µM; in the assay on HOP-92 NSCLC, 6.37 µM.

In the case of `COc1ccc2c(c1)CC[C@@H]1[C@@H]2CC[C@]2(C)c3c(cc(C(=O)O)c4sccc34)C[C@@H]12`, the GI50 is 24.7 µM in the assay with OVCAR-3 ovarian; 24.7 µM with NCI-H522 lung; 18.7 µM with BT-549 breast; 14.3 µM in the assay with SF-295 CNS; 26 µM in the assay with SK-OV-3 ovarian; 4.01 µM in the assay on RPMI-8226 leukemia. Also, the values for the GI50 with SR leukemia, in the assay with CAKI-1 renal and with EKVX NSCLC were 16.4 µM, 33.8 µM and 16.2 µM, respectively. Moreover, the TGI with OVCAR-3 ovarian came out at 72.1 µM; in the assay with NCI-H522 lung, 86.8 µM; in the assay on BT-549 breast it was 38.8 µM; in the assay on SF-295 CNS, 31.9 µM; in the assay on SK-OV-3 ovarian, 61.2 µM; in the assay with RPMI-8226 leukemia, 17.7 µM. The TGI with SR leukemia worked out at 45.1 µM; in the assay on CAKI-1 renal it was 63.7 µM; in the assay with EKVX NSCLC, 40.5 µM.

In the case of `O=c1[nH]c(=O)c2cc3cc(C4CC(O)C(CO)O4)ccc3cc2[nH]1` (configuration not stated), the GI50 with OVCAR-3 ovarian was more than 100 µM; in the assay on NCI-H522 lung, 17.5 µM; in the assay with BT-549 breast, more than 100 µM; with SF-295 CNS it was more than 100 µM; in the assay on SK-OV-3 ovarian it was more than 100 µM; in the assay with RPMI-8226 leukemia it was more than 100 µM. Further, the GI50 in the assay on CAKI-1 renal, in the assay with HOP-92 NSCLC and with EKVX NSCLC was more than 100 µM each time. The TGI with OVCAR-3 ovarian was more than 100 µM; in the assay on NCI-H522 lung it was 87.8 µM; in the assay with BT-549 breast, more than 100 µM; with SF-295 CNS it was more than 100 µM; in the assay on SK-OV-3 ovarian, more than 100 µM; in the assay with RPMI-8226 leukemia it was more than 100 µM. For the same compound, the TGI in the assay with CAKI-1 renal, with HOP-92 NSCLC and in the assay with EKVX NSCLC was more than 100 µM in each case.

Consider `C=C1C(=O)O[C@H]2[C@H]1CC/C(C=Nc1c(N)cc(C(F)(F)F)cc1C(F)(F)F)=C\CC[C@@]1(C)O[C@@H]21`, for which the GI50 in the assay on OVCAR-3 ovarian is 1.41 µM; in the assay with NCI-H522 lung, 1.66 µM; with BT-549 breast it was 1.47 µM; with SF-295 CNS, 5.1 µM; with SK-OV-3 ovarian, 3.26 µM; with RPMI-8226 leukemia, 0.441 µM. Also, the GI50 in the assay with SR leukemia was 0.567 µM; in the assay on CAKI-1 renal, 1.49 µM; in the assay with HOP-92 NSCLC it was 1.22 µM. The TGI in the assay on OVCAR-3 ovarian turned out to be 2.86 µM; with NCI-H522 lung, 4.13 µM; with BT-549 breast, 3.17 µM; in the assay with SF-295 CNS it was 17.1 µM; with SK-OV-3 ovarian, 11.5 µM; with RPMI-8226 leukemia, 3.26 µM. The results for the TGI with SR leukemia, with CAKI-1 renal and with HOP-92 NSCLC were 5.17 µM, 2.98 µM and 3.09 µM, respectively.

For the compound `CC/C(=C(/c1ccc(O)cc1)c1ccc(OCCN)cc1)c1ccccc1`, the GI50 in the assay with OVCAR-3 ovarian was 2.96 µM; with NCI-H522 lung, 4.26 µM; in the assay with BT-549 breast, 6.31 µM; with SF-295 CNS, 1.86 µM; in the assay on SK-OV-3 ovarian it was 5.06 µM; with RPMI-8226 leukemia, 2.37 µM. In addition, the GI50 with SR leukemia was 1.78 µM; in the assay with CAKI-1 renal, 1.64 µM; with HOP-92 NSCLC, 1.46 µM. In addition, the TGI with OVCAR-3 ovarian was 8.01 µM; with NCI-H522 lung it was 9.36 µM; in the assay with BT-549 breast, 19.6 µM; in the assay with SF-295 CNS, 4 µM; with SK-OV-3 ovarian, 18 µM; in the assay with RPMI-8226 leukemia it was 5.65 µM. Further, the TGI was 4.53 µM with SR leukemia, 4.18 µM with CAKI-1 renal and 5.84 µM in the assay on HOP-92 NSCLC.

On to `COc1cc2c(c(OC)c1OC)-c1ccc(OC)c(=O)cc1[C@@H](NC(C)=O)CC2`, for which the TGI was more than 70.9 µM with BT-549 breast; > 100 µM and 217 µM in the assay with RPMI-8226 leukemia; more than 100 µM in the assay on SR leukemia; more than 625 µM in the assay with EKVX NSCLC. Moreover, the values for the GI50 in the assay on SR leukemia and in the assay with EKVX NSCLC were less than 0.01 µM and 16.7 µM, respectively.

Consider `CCOC(=O)Nc1nc2ccc(Br)cc2s1`, for which the GI50 in the assay on OVCAR-3 ovarian, with NCI-H522 lung, in the assay with BT-549 breast, with SF-295 CNS, in the assay on SK-OV-3 ovarian and in the assay on RPMI-8226 leukemia was more than 50 µM in each case. Also, the GI50 with SR leukemia, in the assay with CAKI-1 renal and in the assay with HOP-92 NSCLC was more than 50 µM in each case. Further, the TGI in the assay with OVCAR-3 ovarian, in the assay with NCI-H522 lung, in the assay with BT-549 breast, in the assay on SF-295 CNS, in the assay on SK-OV-3 ovarian and in the assay with RPMI-8226 leukemia was more than 50 µM each time. Moreover, the TGI in the assay on SR leukemia, in the assay with CAKI-1 renal and with HOP-92 NSCLC was more than 50 µM throughout.
